Biological target: Human complement C1s enzyme (Homo sapiens (Human), UniProt P09871)
Assay: Human C1s enzyme assay
Format: biochemical
Conditions: Human C1s enzyme assay of Example 3; read-out: IC50 (Stars)
Outline: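 Purified serum-derived human C1s (1.16 nM final) preincubated 5 min at room temperature with compound in 50 mM Tris, 1 M NaCl, pH 7.5. Z-L-Lys-SBzl thioester substrate and DTNB added (100 μM each, final); A405 read every 30 s for 30 min. IC50 from nonlinear regression of reaction rates against compound concentration.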

Chain of Human complement C1s enzyme (P09871 438-688 limits assumed): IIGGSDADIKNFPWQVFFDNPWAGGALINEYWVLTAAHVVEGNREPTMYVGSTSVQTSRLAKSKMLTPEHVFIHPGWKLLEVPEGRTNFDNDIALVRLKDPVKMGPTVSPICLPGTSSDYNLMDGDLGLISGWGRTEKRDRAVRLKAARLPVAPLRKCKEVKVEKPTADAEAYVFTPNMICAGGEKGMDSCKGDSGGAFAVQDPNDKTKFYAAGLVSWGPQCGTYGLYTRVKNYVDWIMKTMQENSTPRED
Chain of Human complement C1s enzyme (P09871 16-437 partner limits assumed): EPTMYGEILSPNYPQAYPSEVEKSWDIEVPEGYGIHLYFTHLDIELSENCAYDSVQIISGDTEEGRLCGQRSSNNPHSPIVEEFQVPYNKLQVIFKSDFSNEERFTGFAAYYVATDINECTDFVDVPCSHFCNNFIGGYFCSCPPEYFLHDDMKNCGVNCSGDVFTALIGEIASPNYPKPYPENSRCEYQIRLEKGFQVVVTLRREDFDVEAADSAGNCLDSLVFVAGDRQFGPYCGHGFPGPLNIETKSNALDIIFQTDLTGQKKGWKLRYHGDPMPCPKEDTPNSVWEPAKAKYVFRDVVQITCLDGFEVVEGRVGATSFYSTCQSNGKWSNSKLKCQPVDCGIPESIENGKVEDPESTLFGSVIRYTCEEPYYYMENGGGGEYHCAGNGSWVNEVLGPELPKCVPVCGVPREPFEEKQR

| IC50 [nM] | SMILES |
| --- | --- |
| < 100 | CC1c2ccccc2-c2cc(C(=O)NCC(=O)N3CC4(C[C@H]3C(=O)NCc3cc(C(=N)N)cs3)OCCO4)ccc21 (stereo partly drawn) [Compound 110, (8S)—N-((4-carbamimidoylthiophen-2-yl)methyl)-7-((9-methyl-9H-fluorene-3-carbonyl)glycyl)-1,4-dioxa-7-azaspiro[4.4]nonane-8-carboxamide] |
| < 100 | CCc1ccc(Oc2ccc(C(=O)NCC(=O)N3C[C@H](OC(F)F)C[C@H]3C(=O)N[C@H](C)c3cc(C(=N)N)cs3)cc2)cc1 [Compound 39, (2S,4R)—N—((R)-1-(4-carbamimidoylthiophen-2-yl)ethyl)-4-(difluoromethoxy)-1-((4-(4-ethylphenoxy)benzoyl)glycyl)pyrrolidine-2-carboxamide] |
| < 100 | C[C@@H](NC(=O)[C@@H]1C[C@]2(CO)C[C@@H]2N1C(=O)CNC(=O)c1ccc2c(c1)-c1ccccc1C2(F)F)c1cc(C(=N)N)cs1 [Compound 53, (1S,3S,5R)—N—((R)-1-(4-carbamimidoylthiophen-2-yl)ethyl)-2-((9,9-difluoro-9H-fluorene-3-carbonyl)glycyl)-5-(hydroxymethyl)-2-azabicyclo [3.1.0]hexane-3-carboxamide] |
| < 100 | Cc1cc(C(=O)NCC(=O)N2CC3(C[C@H]2C(=O)NCc2cc(C(=N)N)cs2)OCCO3)ccc1-c1ccccc1 [Compound 115, (S)—N-((4-carbamimidoylthiophen-2-yl)methyl)-7-((2-methyl-[1,1′-biphenyl]-4-carbonyl)glycyl)-1,4-dioxa-7-azaspiro[4.4]nonane-8-carboxamide] |
| > 1000 | C[C@@H](NC(=O)[C@@H]1CC2(CN1C(=O)CNC(=O)c1ccc3c(c1)-c1ccccc1C3(F)F)OCCO2)c1cc(-c2ncco2)cs1 [Compound 113, (S)-7-((9,9-difluoro-9H-fluorene-3-carbonyl)glycyl)-N—((R)-1-(4-(oxazol-2-yl)thiophen-2-yl)ethyl)-1,4-dioxa-7-azaspiro[4.4]nonane-8-carboxamide] |
| < 100 | C[C@@H](NC(=O)[C@@H]1CC2(CN1C(=O)CNC(=O)c1ccc(-c3ccc(F)cc3)c(F)c1)OCCO2)c1cc(C(=N)N)cs1 [Compound 175, (S)—N—((R)-1-(4-carbamimidoylthiophen-2-yl)ethyl)-7-((2,4′-difluoro-[1,1′-biphenyl]-4-carbonyl)glycyl)-1,4-dioxa-7-azaspiro[4.4]nonane-8-carboxamide] |
| < 100 | CO[C@@H]1C[C@@H](C(=O)N[C@H](C)c2cc(C(=N)N)cs2)N(C(=O)CNC(=O)c2ccc(Oc3ccc(F)cc3)cc2)C1 [Compound 70, (2S,4R)—N—((R)-1-(4-carbamimidoylthiophen-2-yl)ethyl)-1-((4-(4-fluorophenoxy)benzoyl)glycyl)-4-methoxypyrrolidine-2-carboxamide] |
| < 100 | C[C@@H](NC(=O)[C@@H]1CC2(CN1C(=O)CNC(=O)c1ccc3c(c1)-c1ccccc1C3O)OCCO2)c1cc(C(=N)N)cs1 (stereo partly drawn) [Compound 162, (8S)—N—((R)-1-(4-carbamimidoylthiophen-2-yl)ethyl)-7-((9-hydroxy-9H-fluorene-3-carbonyl)glycyl)-1,4-dioxa-7-azaspiro[4.4]nonane-8-carboxamide] |
| < 100 | C[C@@H](NC(=O)[C@@H]1C[C@@H](S(C)(=O)=O)CN1C(=O)CNC(=O)c1ccc(C(F)(F)c2ccccc2)cc1)c1cc(C(=N)N)cs1 [Compound 168, (2S,4R)—N—((R)-1-(4-carbamimidoylthiophen-2-yl)ethyl)-1-((4-(difluoro(phenyl)methyl)benzoyl)glycyl)-4-(methylsulfonyl)pyrrolidine-2-carboxamide] |
| < 100 | COC[C@H]1C[C@@H](C(=O)N[C@H](C)c2cc(C(=N)N)cs2)N(C(=O)CNC(=O)c2ccc(Oc3ccc(F)cc3)cc2)C1 (relative stereo) [Compound 80, (2S,4S*)—N—((R)-1-(4-carbamimidoylthiophen-2-yl)ethyl)-1-((4-(4-fluorophenoxy)benzoyl)glycyl)-4-(methoxymethyl)pyrrolidine-2-carboxamide] |
| < 100 | C[C@@H](NC(=O)[C@@H]1C[C@](F)(CF)CN1C(=O)CNC(=O)c1ccc2c(c1)-c1ccccc1C2)c1cc(C(=N)N)cs1 [Compound 12, (2S,4R)—N-[(1R)-1-(4-carbamimidoylthiophen-2-yl)ethyl]-1-[2-(9H-fluoren-3-ylformamido)acetyl]-4-fluoro-4-(fluoromethyl)pyrrolidine-2-carboxamide] |
| < 100 | C[C@@H](NC(=O)[C@@H]1C[C@](F)(COCCNC(=O)CC[C@H](NC(=O)CCCCCCCCCCCCCCCCC(=O)O)C(=O)O)CN1C(=O)CNC(=O)c1ccc2c(c1)-c1ccccc1C2(F)F)c1cc(C(=N)N)cs1 [Compound 133, 18-(((S)-4-((2-(((3R,5S)-5-(((R)-1-(4-carbamimidoylthiophen-2-yl)ethyl)carbamoyl)-1-((9,9-difluoro-9H-fluorene-3-carbonyl)glycyl)-3-fluoropyrrolidin-3-yl)methoxy)ethyl)amino)-1-carboxy-4-oxobutyl)amino)-18-oxooctadecanoic acid] |
| > 1000 | O=C(NCC(=O)N1CC2(C[C@H]1C(=O)NCc1cc(Br)cs1)OCCO2)c1ccc(Oc2ccc(F)cc2)cc1 [Compound 75, (S)—N-((4-bromothiophen-2-yl)methyl)-7-((4-(4-fluorophenoxy)benzoyl)glycyl)-1,4-dioxa-7-azaspiro[4.4]nonane-8-carboxamide] |
| < 100 | C[C@@H](NC(=O)[C@@H]1C[C@](F)(CF)CN1C(=O)CNC(=O)c1ccc(Oc2ccc(C(F)(F)F)cc2)cc1)c1cc(C(=N)N)cs1 [Compound 15, (2S,4R)—N-[(1R)-1-(4-carbamimidoylthiophen-2-yl)ethyl]-4-fluoro-4-(fluoromethyl)-1-[2-({4-[4-(trifluoromethyl)phenoxy]phenyl}formamido)acetyl]pyrrolidine-2-carboxamide] |
| < 100 | N=C(N)c1csc(CNC(=O)[C@@H]2CC3(CN2C(=O)CNC(=O)c2ccc(Oc4ccccc4)cc2F)OCCO3)c1 [Compound 74, (S)—N-((4-carbamimidoylthiophen-2-yl)methyl)-7-((2-fluoro-4-phenoxybenzoyl)glycyl)-1,4-dioxa-7-azaspiro[4.4]nonane-8-carboxamide] |

Same assay, conditions: Human complement C1s enzyme 1.16 nM, substrate Z-L-Lys-SBzl 100 μM, assay of Example 3; read-out: IC50 (Stars)

| IC50 [nM] | SMILES |
| --- | --- |
| < 100 | C[C@@H](NC(=O)[C@@H]1C[C@@H](OC(F)F)CN1C(=O)CNC(=O)c1ccc2cc3ccccc3cc2c1)c1cc(C(=N)N)cs1 [Compound 206, (2S,4R)-1-((anthracene-2-carbonyl)glycyl)-N—((R)-1-(4-carbamimidoylthiophen-2-yl)ethyl)-4-(difluoromethoxy)pyrrolidine-2-carboxamide] |
| < 100 | C[C@@H](NC(=O)[C@@H]1C[C@](F)(CF)CN1C(=O)CNC(=O)c1ccc2c(c1)S(=O)(=O)c1ccccc1-2)c1cc(C(=N)N)cs1 [Compound 375, (2S,4R)—N—((R)-1-(4-carbamimidoylthiophen-2-yl)ethyl)-1-((5,5-dioxidodibenzo[b,d]thiophene-3-carbonyl)glycyl)-4-fluoro-4-(fluoromethyl)pyrrolidine-2-carboxamide] |
| < 100 | C[C@@H](NC(=O)[C@@H]1C[C@H](C(F)(F)F)CN1C(=O)CNC(=O)c1ccc2c(c1)-c1ccccc1C2(F)F)c1cc(C(=N)N)cs1 [Compound 322, (2S,4S)—N—((R)-1-(4-carbamimidoylthiophen-2-yl)ethyl)-1-((9,9-difluoro-9H-fluorene-3-carbonyl)glycyl)-4-(trifluoromethyl)pyrrolidine-2-carboxamide] |
| < 100 | N=C(N)c1csc(CNC(=O)[C@@H]2CC3(CN2C(=O)CN2CCc4cc(-c5ccc(F)cc5F)ccc4C2=O)OCCO3)c1 [Compound 245, (S)—N-((4-carbamimidoylthiophen-2-yl)methyl)-7-(2-(6-(2,4-difluorophenyl)-1-oxo-3,4-dihydroisoquinolin-2(1H)-yl)acetyl)-1,4-dioxa-7-azaspiro[4.4]nonane-8-carboxamide] |
| > 1000 | C[C@@]12C[C@@H]1N(C(=O)CNC(=O)c1ccc(Oc3ccccc3)cc1)[C@H](C(=O)NCc1cccc(Cl)c1Cl)C2 [Compound 387, (1S,3S,5S)—N-(2,3-dichlorobenzyl)-5-methyl-2-((4-phenoxybenzoyl)glycyl)-2-azabicyclo[3.1.0]hexane-3-carboxamide] |
| < 100 | Cc1ccc(-c2ccc(C(=O)NCC(=O)N3CC4(C[C@H]3C(=O)NCc3cc(C(=N)N)cs3)OCCO4)cc2)c(C)c1 [Compound 257, (S)—N-((4-carbamimidoylthiophen-2-yl)methyl)-7-((2′,4′-dimethyl-[1,1′-biphenyl]-4-carbonyl)glycyl)-1,4-dioxa-7-azaspiro[4.4]nonane-8-carboxamide] |
| < 100 | C[C@@H](NC(=O)[C@@H]1CC2(CN1C(=O)CNC(=O)c1ccc3c(c1)Oc1ccccc1S3)OCCO2)c1cc(C(=N)N)cs1 [Compound 271, (S)—N—((R)-1-(4-carbamimidoylthiophen-2-yl)ethyl)-7-((phenoxathiine-3-carbonyl)glycyl)-1,4-dioxa-7-azaspiro[4.4]nonane-8-carboxamide] |
| < 100 | Cc1ccccc1[C@H]1C[C@@H](C(=O)N[C@H](C)c2cc(C(=N)N)cs2)N(C(=O)CNC(=O)c2ccc3oc4ccccc4c3c2)C1 [Compound 236, (2S,4R)—N—((R)-1-(4-carbamimidoylthiophen-2-yl)ethyl)-1-((dibenzo[b,d]furan-2-carbonyl)glycyl)-4-(o-tolyl)pyrrolidine-2-carboxamide] |

Same assay, conditions: Human complement C1s enzyme 1.16 nM, substrate Z-L-Lys-SBzl; assay of Example 3; read-out: IC50 (Stars)

| IC50 [nM] | SMILES |
| --- | --- |
| < 100 | COC[C@@]1(F)C[C@@H](C(=O)N[C@H](C)c2cc(C(=N)N)cs2)N(C(=O)CNC(=O)c2ccc3c(c2)-c2ccccc2C3C)C1 (stereo partly drawn) [Compound 418, (2S,4R)—N—((R)-1-(4-carbamimidoylthiophen-2-yl)ethyl)-4-fluoro-4-(methoxymethyl)-1-((9-methyl-9H-fluorene-3-carbonyl)glycyl)pyrrolidine-2-carboxamide] |

From patent US20250346585A1 (Alexion Pharmaceuticals, Inc., priority 2022, published 2025)
